Each structure is given as a SMILES string.

Assay [1] concerns the target Serine/threonine-protein kinase B-raf [V600E] (Homo sapiens, UniProt P15056, V600E). As to the kind of experiment: In vitro Enzyme Assay. Particulars: pH 7.5; 25 °C. The procedure:
(§1) Reaction Biology Corporation Kinase HotSpotSM service: In a final reactionvolume of 25 μL, kinase (5-10 mU) is incubated with 25 mM Tris pH 7.5, 0.02 mM ethylene glycol tetracetic acid (EGTA), 0.66 mg/mL myelin basic protein, […], and [γ33P-ATP] (specific activity approx. 500 c.p.m./pmol,concentration as required). The reaction is initiated by the addition of the Mg-ATP mix. After incubation for 40 min at room temperature, the reaction is stopped by the addition of 5 μL of a 3% phosphoric acid solution. About 10 μL ofthe reaction solution is then spotted onto a P30 filtermat and washed three times for 5 min in 75 mM phosphoric acid and once in methanol prior to drying and scintillation counting.

Assay [2] deals with RAF proto-oncogene serine/threonine-protein kinase (Homo sapiens, UniProt P04049). Nature of the assay: In vitro Enzyme Assay. Particulars: pH 7.5; 25 °C. Here is the method: as §1
RAF proto-oncogene serine/threonine-protein kinase, sequence (P04049 whole entry): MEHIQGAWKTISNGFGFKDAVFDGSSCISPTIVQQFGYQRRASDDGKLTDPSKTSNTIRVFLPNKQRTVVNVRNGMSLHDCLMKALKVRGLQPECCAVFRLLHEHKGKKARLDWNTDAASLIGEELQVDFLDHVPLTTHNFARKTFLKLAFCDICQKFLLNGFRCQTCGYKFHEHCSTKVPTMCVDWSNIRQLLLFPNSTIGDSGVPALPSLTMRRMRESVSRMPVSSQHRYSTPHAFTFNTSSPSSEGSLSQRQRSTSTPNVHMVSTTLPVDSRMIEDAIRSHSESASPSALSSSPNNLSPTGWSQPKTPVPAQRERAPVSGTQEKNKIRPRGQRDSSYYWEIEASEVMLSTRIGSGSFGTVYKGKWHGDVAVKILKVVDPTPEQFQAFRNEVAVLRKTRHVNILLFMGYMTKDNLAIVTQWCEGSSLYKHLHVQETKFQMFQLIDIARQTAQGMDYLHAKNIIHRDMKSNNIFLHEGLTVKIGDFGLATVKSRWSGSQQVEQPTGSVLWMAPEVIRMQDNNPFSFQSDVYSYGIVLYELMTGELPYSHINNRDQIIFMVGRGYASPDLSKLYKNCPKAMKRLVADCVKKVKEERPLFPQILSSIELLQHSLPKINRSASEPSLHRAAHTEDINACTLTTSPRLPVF

Serine/threonine-protein kinase B-raf [V600E], sequence (P15056 2-766 V600E limits assumed): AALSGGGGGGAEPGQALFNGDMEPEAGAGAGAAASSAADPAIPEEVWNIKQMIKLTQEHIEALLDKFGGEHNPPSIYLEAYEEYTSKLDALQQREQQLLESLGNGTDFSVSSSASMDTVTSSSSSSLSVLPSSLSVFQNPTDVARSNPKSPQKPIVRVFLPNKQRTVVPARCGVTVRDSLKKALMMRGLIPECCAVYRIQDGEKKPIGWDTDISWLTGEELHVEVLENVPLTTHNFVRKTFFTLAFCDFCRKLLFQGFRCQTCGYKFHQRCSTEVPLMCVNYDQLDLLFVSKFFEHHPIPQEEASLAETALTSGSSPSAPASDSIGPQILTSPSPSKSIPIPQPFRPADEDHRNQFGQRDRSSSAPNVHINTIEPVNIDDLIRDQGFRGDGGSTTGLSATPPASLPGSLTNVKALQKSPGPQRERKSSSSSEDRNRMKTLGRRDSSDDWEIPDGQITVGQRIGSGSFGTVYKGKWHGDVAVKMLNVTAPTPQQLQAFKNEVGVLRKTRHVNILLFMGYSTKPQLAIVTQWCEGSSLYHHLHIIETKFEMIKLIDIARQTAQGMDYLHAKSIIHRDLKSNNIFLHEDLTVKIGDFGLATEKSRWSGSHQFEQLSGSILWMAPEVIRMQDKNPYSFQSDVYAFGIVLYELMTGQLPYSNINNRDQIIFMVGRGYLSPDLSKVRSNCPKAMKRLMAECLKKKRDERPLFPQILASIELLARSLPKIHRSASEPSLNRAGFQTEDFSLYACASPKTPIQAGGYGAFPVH

Regarding `CNC(=O)c1cc(Oc2cccc3nc(Nc4cccc(C(C)(C)C)c4)ccc23)ccn1` [4-((2-((3-(Tert-butyl)phenyl)amino)quinolin-5-yl)oxy)-N-methylpicolinamide (6d)], the IC50 (in general, the concentration that gives 50% inhibition) in assay [1] was > 100 µM; in assay [2], 92.6 µM.

As to `CNC(=O)c1cc(Oc2cccc3nc(Nc4ccc(Cl)c(C(F)(F)F)c4)ccc23)ccn1` [4-((2-((4-Chloro-3-(trifluoromethyl)phenyl)amino)quinolin-5-yl)oxy)-N-methylpicolinamide (6j)], the 50% inhibitory concentration (IC50) in assay [1] and in assay [2] was > 100 µM throughout.

Source of the values: BindingDB's records for doi:10.1111/cbdd.12836 (Korea Institute of Science and Technology, 2017).
